We go through nine compounds from ChEMBL document CHEMBL1144289, “A convenient one-pot synthesis of asymmetric 1,3,5-triazine-2,4,6-triones and its application towards a novel class of gonadotropin-releasing hormone receptor antagonists” (Bioorg Med Chem Lett, 2005).

The term pKi denotes the negative decadic logarithm of the Ki, by convention in mol/L.

Structures are written as SMILES. pKi: −log10 of the molar value. A value given as a limit tells only on which side of the number the result lay.

The target of the experiment is T1, Gonadotropin-releasing hormone receptor (Homo sapiens, UniProt P30968).
T1 sequence (P30968 whole entry): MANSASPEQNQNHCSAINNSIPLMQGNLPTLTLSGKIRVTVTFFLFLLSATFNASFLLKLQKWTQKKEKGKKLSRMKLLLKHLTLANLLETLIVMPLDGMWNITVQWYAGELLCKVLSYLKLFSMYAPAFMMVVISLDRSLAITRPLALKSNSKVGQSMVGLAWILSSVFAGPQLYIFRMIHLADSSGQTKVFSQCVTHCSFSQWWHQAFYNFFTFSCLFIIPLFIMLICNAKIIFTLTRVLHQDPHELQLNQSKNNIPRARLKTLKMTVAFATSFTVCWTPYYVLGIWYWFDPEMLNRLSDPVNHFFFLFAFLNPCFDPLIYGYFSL
As to the kind of experiment: Inhibitory constant against cloned human Gonadotropin-releasing hormone receptor stably expressed in HEK293 cells was determined. In kind it is cell-based.
For the compound `N[C@@H](Cn1c(=O)n(Cc2c(F)cccc2F)c(=O)n(-c2ccc3nsnc3c2)c1=O)c1ccccc1`, the negative-log Ki (pKi) is 6.39.

Regarding `COc1cccc(-n2c(=O)n(CCN(C)CCc3ccccn3)c(=O)n(Cc3c(F)cccc3F)c2=O)c1`, the negative-log Ki (pKi) was 5.38.

In the case of `N[C@@H](Cn1c(=O)n(Cc2c(F)cccc2F)c(=O)n(-c2c(F)cccc2F)c1=O)c1ccccc1`, the pKi was 6.66.

`N[C@@H](Cn1c(=O)n(Cc2c(F)cccc2F)c(=O)n(-c2ccccc2F)c1=O)c1ccccc1` showed a pKi of 7.05.

As for `COc1cccc(-c2c(C)n(Cc3c(F)cccc3F)c(=O)n(C[C@@H](C)N(C)CCc3ccccn3)c2=O)c1`, the pKi was 8.96.

The compound `NC(Cc1c[nH]c2ccccc12)Cn1c(=O)n(Cc2c(F)cccc2F)c(=O)n(-c2c(F)cccc2F)c1=O` (centres undefined) had a pKi of 6.42.

The compound `COc1cccc(-n2c(=O)n(Cc3c(F)cccc3F)c(=O)n(C[C@H](N)c3ccccc3)c2=O)c1` had a pKi of 7.43.

Compound `COc1cccc(-c2c(C)n(CCN(C)CCc3ccccn3)c(=O)n(Cc3c(F)cccc3F)c2=O)c1` showed a pKi of under 4.70.

Take `COc1cccc(-n2c(=O)n(Cc3c(F)cccc3F)c(=O)n(CC(N)c3ccccc3)c2=O)c1` (centres undefined): the pKi is 6.92.
